Data published in patent publication US5120750A, “Generation of 1,4-dihydropyridine derivatives” (priority 1990, dated 1992).
Entries after “also recorded” stand apart in the source; their conditions may differ. Where two headings read alike, the source gives them in different places.

What was measured:
angiotensin = assay: In-vitro angiotensin inhibitory activity; assay type: biochemical; conditions: for Percent Inhibition (angiotensin inhibitory activity): in vitro; for angiotensin inhibitory activity (in words): general pharmacological screening
calcium channel = biological target: T1, calcium channel (Cavia porcellus, UniProt O35505); assay: Calcium channel antagonist activity: inhibition of muscarinic receptor-mediated Ca2+-dependent contraction (carbachol) of guinea pig ileal longitudinal smooth muscle; assay type: cell-based; conditions: for relative potency as compared with Nifedipine: Nifedipine = reference
T1 construct: Longitudinal smooth muscle segments of 2 cm length were mounted under a resting tension; from tissue; host or cells: ileal longitudinal smooth muscle segments of male albino guinea pigs
Method: Male albino guinea pigs (body weight 300-450 g) were sacrificed by decapitation. The intestine was removed above the ileo-caecal junction. Longitudinal smooth muscle segments of 2 cm length were mounted under a resting tension of 300-400 mg. […] The muscles were equilibrated for 1 h with a solution change every 15 min. Two successive control contractions were elicited at 15 min. intervals with 5×10^-7 M carbachol. The isometric contractions were recorded with a force displacement transducer (FT 03C) on a GRASS* physiograph. The means of the […] contractile responses was taken as the 100% value for the tonic (slow) component of the response. The muscle was washed with Hepes saline solution and was allowed to re-equilibrate. The calcium antagonist (test compound) was added ten min before the dose-response for carbachol was determined. The drug-induced inhibition of contraction was expressed as percent of control. The ID50 values were graphically determined from the concentration-response curves, in triplicate.

[1] = In-vivo (P.O.) anti-ulcer stress activity; conditions: for anti-ulcer stress Activity: P.O.; for anti-ulcer stressic activity (in words): general pharmacological screening
LTD4 = LTD4 antagonistic activity (general pharmacological screening)
[2] = In-vivo (P.O.) anti-inflammatory activity; conditions: for anti-inflammatory Activity: P.O.
heart muscle = assay: Ionotropic effect on heart muscle; conditions: for heart contractile force: at concentrations which exhibit Ca-blocking effect in smooth muscles; for positive ionotropic effect on the heart: in the same concentration as on smooth muscle; for activation at 0.00325 µM: same concentration as smooth muscle relaxant (Compound 11: 3.25×10^-9 M), Compound 19 in the same condition, read-out: positive ionotropic effect on heart muscle
heart [3] = assay: Effect on heart rate
SHR Rat = assay: Blood pressure and heart rate in SHR Rat; assay type: in vivo; conditions: 0.2 mg/Kg
heart [4] = conditions: J. Cardiovascular Pharmacology, 1987, 10 (Suppl. 1) S60-S65; cited from earlier work
[5] = guinea pig ileal longitudinal smooth muscle, carbachol, 37° C., triplicate, read-out: calcium channel antagonist act., inhib. act. on contractile response to CD ID50

T1 sequence (O35505 whole entry): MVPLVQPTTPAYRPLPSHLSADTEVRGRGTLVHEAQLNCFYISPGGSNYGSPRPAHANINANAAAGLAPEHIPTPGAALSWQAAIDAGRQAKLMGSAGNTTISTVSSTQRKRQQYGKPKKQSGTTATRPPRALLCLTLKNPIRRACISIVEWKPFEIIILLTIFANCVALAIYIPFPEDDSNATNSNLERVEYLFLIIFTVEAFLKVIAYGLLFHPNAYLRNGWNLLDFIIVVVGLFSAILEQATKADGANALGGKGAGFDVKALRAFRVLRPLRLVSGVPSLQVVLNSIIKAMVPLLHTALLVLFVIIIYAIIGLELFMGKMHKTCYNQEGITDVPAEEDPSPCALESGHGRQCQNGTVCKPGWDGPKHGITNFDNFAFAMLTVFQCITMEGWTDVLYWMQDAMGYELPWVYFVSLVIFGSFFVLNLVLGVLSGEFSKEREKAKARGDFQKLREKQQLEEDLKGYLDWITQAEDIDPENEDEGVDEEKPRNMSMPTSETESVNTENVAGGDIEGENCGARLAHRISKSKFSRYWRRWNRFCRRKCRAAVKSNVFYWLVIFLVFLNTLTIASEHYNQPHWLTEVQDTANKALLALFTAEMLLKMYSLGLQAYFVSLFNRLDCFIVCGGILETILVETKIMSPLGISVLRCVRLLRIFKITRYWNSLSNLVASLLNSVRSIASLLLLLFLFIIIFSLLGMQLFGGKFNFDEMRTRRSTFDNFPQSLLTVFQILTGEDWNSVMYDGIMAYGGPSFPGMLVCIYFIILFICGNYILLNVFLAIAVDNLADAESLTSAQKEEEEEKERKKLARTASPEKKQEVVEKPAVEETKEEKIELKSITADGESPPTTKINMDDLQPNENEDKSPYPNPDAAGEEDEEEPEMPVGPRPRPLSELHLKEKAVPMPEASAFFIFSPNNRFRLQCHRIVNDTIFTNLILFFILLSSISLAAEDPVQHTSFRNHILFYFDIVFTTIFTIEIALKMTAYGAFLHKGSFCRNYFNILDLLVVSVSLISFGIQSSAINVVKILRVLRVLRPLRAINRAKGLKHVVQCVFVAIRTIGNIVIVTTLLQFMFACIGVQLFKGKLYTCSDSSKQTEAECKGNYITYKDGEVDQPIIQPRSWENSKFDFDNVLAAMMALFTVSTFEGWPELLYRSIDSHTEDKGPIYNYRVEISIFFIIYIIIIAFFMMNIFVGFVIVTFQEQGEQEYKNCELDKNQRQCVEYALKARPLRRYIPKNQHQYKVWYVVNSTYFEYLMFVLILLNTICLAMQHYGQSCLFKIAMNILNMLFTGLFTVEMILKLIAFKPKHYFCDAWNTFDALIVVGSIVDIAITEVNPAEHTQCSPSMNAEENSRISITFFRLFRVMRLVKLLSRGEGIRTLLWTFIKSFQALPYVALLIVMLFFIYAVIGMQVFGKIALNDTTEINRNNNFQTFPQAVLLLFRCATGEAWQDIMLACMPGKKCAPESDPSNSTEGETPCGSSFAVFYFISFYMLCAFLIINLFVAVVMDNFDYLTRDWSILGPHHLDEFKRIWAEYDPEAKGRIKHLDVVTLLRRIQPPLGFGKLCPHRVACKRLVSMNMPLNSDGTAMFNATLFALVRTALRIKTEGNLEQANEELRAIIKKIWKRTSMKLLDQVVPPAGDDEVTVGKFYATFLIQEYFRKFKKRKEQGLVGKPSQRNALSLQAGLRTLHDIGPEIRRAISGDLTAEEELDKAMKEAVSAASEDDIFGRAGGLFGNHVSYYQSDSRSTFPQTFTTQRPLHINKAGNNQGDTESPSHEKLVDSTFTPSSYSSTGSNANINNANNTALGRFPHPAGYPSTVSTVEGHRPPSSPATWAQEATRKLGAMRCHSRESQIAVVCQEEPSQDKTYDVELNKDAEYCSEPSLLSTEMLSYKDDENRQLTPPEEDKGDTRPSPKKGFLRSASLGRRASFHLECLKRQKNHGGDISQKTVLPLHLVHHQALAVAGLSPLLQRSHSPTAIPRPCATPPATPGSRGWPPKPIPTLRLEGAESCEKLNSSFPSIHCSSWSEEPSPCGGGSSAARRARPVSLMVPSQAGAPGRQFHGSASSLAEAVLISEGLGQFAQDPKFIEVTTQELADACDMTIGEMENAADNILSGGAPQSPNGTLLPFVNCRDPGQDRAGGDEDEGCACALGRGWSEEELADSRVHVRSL

SMILES: C[C@H](CS)C(=O)N1CCC[C@H]1C(=O)O [Captopril, reference compound]
- Percent Inhibition (angiotensin inhibitory activity) (angiotensin; 0.05 μg/ml): 69%

SMILES: COC(=O)C1=C(C)NC(C)=C(C(=O)OCCCCCCCc2cc(C)no2)C1c1cccc([N+](=O)[O-])c1 (centres unmarked) [Example 1, 3-[7-(3-Methylisoxazol-5-yl)heptyloxycarbonyl]-5-methoxycarbonyl-2,6-dimethyl-4-(3-nitrophenyl)-1,4-dihydropyridine]
- IC50 (calcium channel; [5]): 3.84 nM
- angiotensin inhibitory activity (in words) (angiotensin): very strong
- Percent Inhibition (angiotensin inhibitory activity) (angiotensin; 0.0025 μg): 60%
- Percent Inhibition (angiotensin inhibitory activity) (angiotensin; 0.01 μg/ml): 93%
- anti-ulcer stress Activity ([1]; 50 mg/kg): 63%
- anti-ulcer stressic activity (in words) [1]: very strong
- LTD4 antagonistic activity (in words) (LTD4): very strong

SMILES: COC(=O)C1=C(C)NC(C)=C(C(=O)OCCCCCCCc2cc(C)no2)C1c1cccc(C(F)(F)F)c1 (centres unmarked) [Example 3, 3-[7-(3-Methylisoxazol-5-yl)heptyloxycarbonyl]-5-methoxycarbonyl-2,6-dimethyl-4-(3-trifluoromethylphenyl)-1,4-dihydropyridine]
- IC50 (calcium channel; [5]): 5.13 nM

SMILES: COC(=O)C1=C(C)NC(C)=C(C(=O)OCCCCCCn2nc(C)cc2C)C1c1cccc([N+](=O)[O-])c1 (centres unmarked) [Example 5, 3-[6-(3,5-Dimethylpyrazol-1-yl)hexyloxycarbonyl]-5-methoxycarbonyl-2,6-dimethyl-4-(3-nitrophenyl) -1,4-dihydropyridine]
- IC50 (calcium channel; [5]): 6.24 nM
- Percent Inhibition (angiotensin inhibitory activity) (angiotensin; 0.001 μg): 58%
- Percent Inhibition (angiotensin inhibitory activity) (angiotensin; 0.01 μg/ml): 95%
- anti-inflammatory Activity ([2]; 40 mg/kg): 35%
- anti-inflammatory activity (in words) ([2]; general pharmacological screening): very strong

SMILES: COC(=O)C1=C(C)NC(C)=C(C(=O)OCCCCCCCc2nc(C)cs2)C1c1cccc([N+](=O)[O-])c1 (centres unmarked) [Example 11, 3-[7-(4-Methylthiazol-2-yl)heptyloxycarbonyl]-5-methoxycarbonyl-2,6-dimethyl-4-(3-nitrophenyl)-1,4-dihydropyridine]
- relative potency as compared with Nifedipine (calcium channel; smooth muscle): 4.3
- IC50 (calcium channel; smooth muscle, read-out: IC50 as calcium antagonist in smooth muscle): 3.25 ± 0.33 nM
- heart contractile force (heart muscle): increase the heart contractile force; also recorded: increases cardia contractile force
- positive ionotropic effect on the heart (heart muscle): about 12%
- activation at 0.00325 µM (heart muscle): ~12%
- heart rate change (heart [3]): without changing the heart rate; also recorded: no effect on the heart
- heart rate change in SHR Rat (SHR Rat): without changing the heart rate

SMILES: COC(=O)C1=C(C)NC(C)=C(C(=O)OCCCCCCCc2nc(C)cs2)C1c1cccc(C(F)(F)F)c1 (centres unmarked) [Example 13, 3-[7-(4-Methylthiazol-2-yl)heptyloxycarbonyl]-5-methoxycarbonyl-2,6-dimethyl-4-(3-trifluoromethylphenyl)-1,4-dihydropyridine]
- anti-inflammatory Activity ([2]; 25 mg/kg): 43%

SMILES: COC(=O)C1=C(C)NC(C)=C(C(=O)OCCCCCCCc2nc(C)cs2)C1c1cccc(Cl)c1 (centres unmarked) [Example 15, 3-[7-(4-Methylthiazol-2-yl)heptyloxycarbonyl]-5-methoxycarbonyl-2,6-dimethyl-4-(3-chlorophenyl)-1,4-dihydropyridine]
- IC50 (calcium channel; [5]): 6.25 nM
- angiotensin inhibitory activity (in words) (angiotensin): very strong
- Percent Inhibition (angiotensin inhibitory activity) (angiotensin; 0.1 μg/ml): 64%
- anti-ulcer stress Activity ([1]; 40 mg/kg): 63%
- anti-ulcer stressic activity (in words) [1]: very strong
- LTD4 antagonistic activity (in words) (LTD4): very strong

SMILES: COC(=O)C1=C(C)NC(C)=C(C(=O)OCCCCCCCc2nc(C)cs2)C1c1cccc(Cl)c1Cl (centres unmarked) [Example 17, 3-[7-(4-Methylthiazol-2-yl)heptyloxycarbonyl]-5-methoxycarbonyl-2,6-dimethyl-4-(2,3-dichlorophenyl)-1,4-dihydropyridine]
- IC50 (calcium channel; [5]): 48.1 nM

SMILES: COC(=O)C1=C(C)NC(C)=C(C(=O)OCCCCCCSc2nc(C)cs2)C1c1cccc([N+](=O)[O-])c1 (centres unmarked) [Example 18, 3-[6-(4-Methylthiazol-2-yl)thiohexyloxycarbonyl]-5-methoxycarbonyl-2,6-dimethyl-4-(3-nitrophenyl)-1,4-dihydropyridine]
- IC50 (calcium channel; [5]): 5.48 nM

SMILES: COC(=O)C1=C(C)NC(C)=C(C(=O)OCCCCCCS(=O)(=O)c2nc(C)cs2)C1c1cccc([N+](=O)[O-])c1 (centres unmarked) [Example 19, 3-[6-(4-Methylthiazol-2-yl)sulfonylhexyloxycarbonyl]-5-methoxycarbonyl-2,6-dimethyl-4-(3-nitrophenyl)-1,4-dihydropyridine]
- IC50 (calcium channel; [5]): 5.81 nM
- relative potency as compared with Nifedipine (calcium channel; smooth muscle): 2.5
- heart contractile force (heart muscle): increase the heart contractile force
- positive ionotropic effect on the heart (heart muscle): about 22%
- activation at 0.00325 µM (heart muscle): 25%
- heart rate change (heart [3]): without changing the heart rate

SMILES: COC(=O)C1=C(C)NC(C)=C(C(=O)OCCCCCC[S+]([O-])c2nc(C)cs2)C1c1cccc([N+](=O)[O-])c1 (centres unmarked) [Example 20, 3-[6-(4-Methylthiazol-2-yl)sulfinylhexyloxycarbonyl]-5-methoxycarbonyl-2,6-dimethyl-4-(3-nitrophenyl)-1,4-dihydropyridine]
- IC50 (calcium channel; [5]): 15.4 nM

SMILES: CCOC(=O)C1=C(C)NC(C)=C(C(=O)OC)C1c1cccc(Cl)c1Cl (centres unmarked) [Felodipine, 3-ethoxycarbonyl-5-methoxycarbonyl-4-(2,3-dichlorophenyl)-2,6-dimethyl-1,4-dihydropyridine]
- effect on heart rate (tachycardia) (heart [4]): creates tachycardia

SMILES: C[C@]12CCC(=O)C=C1CC[C@@H]1[C@@H]2[C@@H](O)C[C@@]2(C)[C@H]1CC[C@]2(O)C(=O)CO [Hydrocortisone, reference compound]
- anti-inflammatory Activity ([2]; 25 mg/kg): 32%

SMILES: CCCCC1C(=O)N(c2ccccc2)N(c2ccccc2)C1=O [Phenylbutazone, reference compound]
- anti-inflammatory Activity ([2]; 50 mg/kg): 33%

SMILES: CN1CCN(CC(=O)N2c3ccccc3C(=O)Nc3cccnc32)CC1 [Pirenzepine, reference compound]
- anti-ulcer stress Activity ([1]; 50 mg/kg): 75%
